Assay results as given in patent US20160102365A1, “ASSAYS, METHODS AND KITS FOR ANALYZING SENSITIVITY AND RESISTANCE TO ANTI-CANCER DRUGS, PREDICTING A CANCER PATIENT'S PROGNOSIS, AND PERSONALIZED TREATMENT STRATEGIES” (UNIVERSITY OF MIAMI, priority 2013, published 2016).

Assays:
Assay type in all cases: cell-based, human
[1] = system: OCI ovarian tumor lines; experiment: Panel of oncology drugs: viable cells by Alamar Blue, OCI versus ATCC ovarian tumor lines; details: 5000 cells/well, WIT-OC medium, serial dilutions, 72-144 hrs incubation
Procedure: In these experiments, ATCC ovarian tumor lines (SKOV3, OV90, TOV-1120 and A2780) and OCI ovarian tumor lines (FCI-P2p, OCI-P5x, OCI-P2a, OCI-C4p, OCI-P7a, OCI-05x, OCI-CSp, FCI-P1p, OCI-P9a1, OCI-P8p, OCI-P3a, OCI-P1a) were plated in WIT-OC medium (5000 cells/well) in 96 well plates. The next day serial dilutions of Taxol, Vincristine, U0126, PJ34, Adriamycin, AS703026, 5-fluorouracil, Cisplatin, PLX4720 and PJ34 were added. The number of viable cells was measured as 590/530 florescence via Alamar Blue after 72-144 hrs incubation, depending on drug. […] Thus, the methods described herein of analyzing sensitivity of a subject's cancerous tumor to an oncology drug and developing a personalized therapy for the subject can be used for any drug.

[2] = system: OCI and SOC cell lines; experiment: Drug sensitivity experiments, response compared between OCI and SOC lines in WIT-OC medium
Procedure: (§1) Drug sensitivity experiments: The relative sensitivities of OCI and SOC cell lines to chemotherapy drugs was measured by seeding an equal number of cells in six replicates in 96-well black-walled clear bottom Corning plates at 3000 cells/well, and allowing attachment in WIT-OC for 12 h. Both OCI and SOC cell lines were exposed to drugs in WIT-OC medium. The cell lines were cultured in the presence of drug or vehicle control for 96 h. The fraction of metabolically active cells after drug treatment was measured by incubation with 2:10 (v/v) CellTiter-Blue reagent (Promega Cat#G8081) in media for 2 h, and the reaction was stopped by addition of 3% SDS. Fluorescence was measured in a SpectraMax M5 plate reader (Molecular Devices, CA) using SoftMax software (555EX/585EM).

[3] = system: OCI lines in mRNA/RPPA Cluster 1; experiment: Taxol drug sensitivity (metabolic activity / viability) of OCI lines in mRNA/RPPA Cluster 1 compared to SOC lines
Procedure: FIG. 2: Gene expression profiling and Taxol Response of ovarian cancer cell lines identifies two major classes. A) Taxol response of OCI and SOC cell lines in mRNA/RPPA (Reverse Phase Protein Analysis) Cluster 1 vs. Cluster 2. The OCI and SOC lines were plated in triplicates in WIT-OC medium (5000 cells/well) in 96 well plates. The next day 20 nM Taxol was added and metabolic activity was measured as 590/530 fluorescence via Alamar Blue after 5 days. OCI cell lines in mRNA/RPPA Cluster 1 (blue bars), SOC cell lines in Cluster 2 (red bars), OCI lines in Cluster 2 (white bars). The results are representative of more than three four different experiments. B) Proteins that are over-expressed in OCI mRNA/RPPA Cluster 1. […] The data are presented in matrix format in which rows represent cell lines and columns represent antibody probes for each protein. The red and green colors reflect relative high and low expression levels respectively. C) Hierarchical clustering of mRNA data from OCI and SOC lines. […]
as §1, with “Both OCI and SOC cell lines were exposed to drugs in WIT-OC medium. The cell lines were cultured in the presence of drug or vehicle control for 96 h.” left out
Drug sensitivity experiments: The relative sensitivities of OCI and SOC cell lines to Taxol was measured by seeding 3000 cells/well in six replicates in 96-well black-walled clear bottom Corning plates and allowing attachment in WIT-OC for 12 h. […] The fraction of metabolically active cells after drug treatment was measured by incubation with 2:10 (v/v) CellTiter-Blue reagent (Promega Cat#G8081) in media for 2 h, and the reaction was stopped by addition of 3% SDS. […]

[4] = system: OCI lines in Cluster 2; experiment: Taxol drug sensitivity of the subset of OCI lines in Cluster 2; details: WIT-OC medium; similar to SOC lines
Procedure: FIG. 2: Gene expression profiling and Taxol Response of ovarian cancer cell lines identifies two major classes. A) Taxol response of OCI and SOC cell lines in mRNA/RPPA (Reverse Phase Protein Analysis) Cluster 1 vs. Cluster 2. The OCI and SOC lines were plated in triplicates in WIT-OC medium (5000 cells/well) in 96 well plates. The next day 20 nM Taxol was added and metabolic activity was measured as 590/530 fluorescence via Alamar Blue after 5 days. OCI cell lines in mRNA/RPPA Cluster 1 (blue bars), SOC cell lines in Cluster 2 (red bars), OCI lines in Cluster 2 (white bars). The results are representative of more than three four different experiments. B) Proteins that are over-expressed in OCI mRNA/RPPA Cluster 1. […]
as §1, with “Both OCI and SOC cell lines were exposed to drugs in WIT-OC medium. The cell lines were cultured in the presence of drug or vehicle control for 96 h.” left out, “(555EX/585EM). […]” for “(555EX/585EM).”

## O=c1[nH]cc(F)c(=O)[nH]1 [5-fluorouracil]
[1]
  Resistance of OCI lines to inhibition of cell proliferation compared to standard (ATCC) cell lines: more resistant

## COc1cccc2c1C(=O)c1c(O)c3c(c(O)c1C2=O)C[C@@](O)(C(=O)CO)C[C@@H]3O[C@H]1C[C@H](N)[C@H](O)[C@H](C)O1 [Adriamycin]
[1]
  Resistance of OCI lines to inhibition of cell proliferation compared to standard (ATCC) cell lines: more resistant

## N.N.[Cl][Pt][Cl] [Cisplatin]
[2]
  Difference in drug response between OCI and SOC lines: did not find a significant difference

## CN(C)CC(=O)Nc1ccc2[nH]c(=O)c3ccccc3c2c1 [PJ34]
[1]
  Resistance of OCI lines to inhibition of cell proliferation compared to standard (ATCC) cell lines: more resistant

## CC(=O)O[C@H]1C(=O)[C@@]2(C)[C@H]([C@H](OC(=O)c3ccccc3)[C@]3(O)C[C@H](OC(=O)[C@H](O)[C@@H](NC(=O)c4ccccc4)c4ccccc4)C(C)=C1C3(C)C)[C@]1(OC(C)=O)CO[C@@H]1C[C@@H]2O [Taxol]
[3]; Homo sapiens, OCI lines plated in WIT-OC medium
  IC50: 10 to 100 nM
[3]; OCI Cluster 1 vs SOC Cluster 2, WIT-OC medium
  IC50 fold higher than the IC50 values in SOC lines in mRNA/RPPA Cluster 2: 5-10 fold
[3]; WIT-OC medium, confirmed with a full dose-response curve
  Sensitivity to Taxol of OCI lines in Cluster 1 relative to SOC lines in Cluster 2: less sensitive
[4]
  Sensitivity to Taxol of OCI lines in Cluster 2 compared to OCI lines in Cluster 1: more sensitive

## N#CC(=C(/N)Sc1ccccc1N)/C(C#N)=C(\N)Sc1ccccc1N [U0126]
[1]
  Resistance of OCI lines to inhibition of cell proliferation compared to standard (ATCC) cell lines: more resistant

## CC[C@]1(O)C[C@H]2CN(CCc3c([nH]c4ccccc34)[C@@](C(=O)OC)(c3cc4c(cc3OC)N(C=O)[C@H]3[C@@](O)(C(=O)OC)[C@H](OC(C)=O)[C@]5(CC)C=CCN6CC[C@]43[C@@H]65)C2)C1 [Vincristine]
[2]
  Difference in drug response between OCI and SOC lines: similarly different
